These results are taken from US20220056043A1, “NITROGEN-CONTAINING FUSED CYCLIC COMPOUND, PREPARATION METHOD THEREFOR AND USE THEREOF” (SICHUAN KELUN-BIOTECH BIOPHARMACEUTICAL CO., LTD., priority 2019, published 2022).

One test deals with THP1-defNLRP3 cells. Put plainly: Agonistic effect on the expression of IL-1β in NLRP3 deficient THP1 cells (THP1-defNLRP3) after PMA-induced differentiation (HTRF). It is filed as cell-based, human. Particulars: Homo sapiens, THP-1; IL-1β level, PMA-differentiated NLRP3 deficient THP1 cells, 6 hours; highest test concentration 30 μM; read-out: hNLRP3 EC50 (μM) (THP-1defNLRP3). The text has this: Experimental Example 2: Agonistic Effect of the Compound of the Invention on the Expression of IL-1β in NLRP3 Deficient THP1 Cells (THP1-defNLRP3 Cells) after PMA-Induced Differentiation
In this test, a HTRF detection method was used to test the effect of the compound of the invention on the level of IL-1β in THP1-defNLRP3 cells to evaluate the specificity of the agonistic effect of the compound on hNLRP3 inflammasome or hNLRP3 inflammasome pathway.
Reagents: as described in Experimental Example 1
Cell: THP1-defNLRP3 (InvivoGen)
Kit: IL-1β assay kit (CISBIO)
1) THP1-defNLRP3 cells in a logarithmic growth phase were seeded in a T75 culture flask at a density of 5×10^5 cells/well, and cultured in a cell incubator at 37° C., 5% CO2 for 24 hours, and then 1 μM PMA was used to induce THP1-defNLRP3 suspension cells to become adherent macrophages. The medium was RPMI 1640 containing 10% heat-inactivated FBS and 0.05 mM β-mercaptoethanol.
2) The cells were induced and cultured for 24 hours. Then the adherent cells were trypsinized and centrifuged at 1000 rpm for 5 min. The supernatant was removed, and the cells were resuspended to a density of 2×10^6 cells/mL in RPMI 1640 medium containing 2% heat-inactivated FBS. 50 μL/well of the cell resuspension was taken and spread on a 96-well plate such that the number of cells in each well was 1×10^5.
3) An appropriate amount of 10 mM DMSO solution of the compound to be tested was taken and diluted to a concentration of 2× test concentration with RPMI 1640 medium containing 2% heat-inactivated FBS. 50 μL/well of the dilution was added to the cells in the 96-well plate, and mixed well. The plate was incubated in a cell incubator at 37° C., 5% CO2 for 6 hours. The supernatant was collected, and the level of IL-1β was measured in accordance with the instructions of the IL-1β detection kit.
4) EC50 was fitted by the GraphPad software log(agonist) vs. response—Variable slope four-parameter method.
For orientation: TR-FRET usually uses a lanthanide donor and a delayed reading to cut background.

For a further test, the target named is T1, hTLR8 (Homo sapiens, UniProt Q9NR97).
T1 construct: host or cells: HEK-Blue hTLR8 cells
T1 sequence (Q9NR97 27-1041): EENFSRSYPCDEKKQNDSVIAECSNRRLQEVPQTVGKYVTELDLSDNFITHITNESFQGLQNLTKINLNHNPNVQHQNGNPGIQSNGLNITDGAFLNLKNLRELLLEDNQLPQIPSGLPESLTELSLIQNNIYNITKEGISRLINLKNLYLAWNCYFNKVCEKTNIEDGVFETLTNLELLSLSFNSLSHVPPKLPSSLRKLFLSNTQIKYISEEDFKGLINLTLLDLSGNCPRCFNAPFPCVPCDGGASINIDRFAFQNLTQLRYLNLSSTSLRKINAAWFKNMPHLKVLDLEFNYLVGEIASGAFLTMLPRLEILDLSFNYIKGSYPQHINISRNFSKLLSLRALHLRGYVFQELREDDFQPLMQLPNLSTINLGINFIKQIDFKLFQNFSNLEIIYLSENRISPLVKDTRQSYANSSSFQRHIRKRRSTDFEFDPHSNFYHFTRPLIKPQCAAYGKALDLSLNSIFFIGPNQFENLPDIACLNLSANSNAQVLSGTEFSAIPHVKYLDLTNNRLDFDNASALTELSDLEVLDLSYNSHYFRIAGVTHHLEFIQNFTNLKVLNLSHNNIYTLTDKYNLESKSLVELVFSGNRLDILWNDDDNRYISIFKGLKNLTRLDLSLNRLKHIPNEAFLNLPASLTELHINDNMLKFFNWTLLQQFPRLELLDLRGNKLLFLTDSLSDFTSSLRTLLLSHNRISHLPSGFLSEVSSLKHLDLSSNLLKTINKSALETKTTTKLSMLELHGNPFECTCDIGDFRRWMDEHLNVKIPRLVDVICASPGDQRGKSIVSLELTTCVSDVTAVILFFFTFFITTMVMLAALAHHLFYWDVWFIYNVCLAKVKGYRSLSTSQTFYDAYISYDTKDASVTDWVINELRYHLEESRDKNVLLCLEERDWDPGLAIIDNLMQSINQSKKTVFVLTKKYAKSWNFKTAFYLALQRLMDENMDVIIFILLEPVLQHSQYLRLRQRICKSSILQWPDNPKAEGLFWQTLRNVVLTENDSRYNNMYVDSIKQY
Description: Agonistic effect on hTLR8, HEK-Blue hTLR8 cells, alkaline phosphatase secretion. Particulars: 16 hours. Format: cell-based. How it is done:
Experimental Example 4: Agonistic Effect of the Compound of the Invention on hTLR8
In this test, the secretion of alkaline phosphatase in HEK-Blue cells was measured to test the activating effect of the compound of the invention on TLR8 signaling pathway, so as to evaluate the specificity of the agonistic effect of the compound on NLRP3 pathway.
Reagents: DMEM (High glucose); FBS (fetal bovine serum) (Gibco); QUANTI-Blue/InvivoGen/rep-qb2
Cells: HEK-Blue™ hTLR8 cells (human TLR 8 cells) (InvivoGen) Experimental Procedures:
1) The HEK-Blue™ hTLR8 cells in a logarithmic growth phase were trypsinized and resuspended in the medium to a concentration of 2×10^6 cells/mL. 50 μL/well of the cell suspension was added to a 96-well plate. An appropriate amount of 10 mM DMSO solution of the compound to be tested was taken and diluted to a concentration of 2× test concentration with the medium. 50 μL/well was added to the cells in the 96-well plate. The plate was incubated in an incubator at 37° C. and 5% CO2 for 16 hours. The medium was DMEM (High glucose) containing 10% FBS. 2) After the cell incubation, 10 μL of cell culture supernatant was transferred to a 96-well plate. 90 μL/well of QUANTI-Blue detection solution was added, and the mixture was incubated at 37° C. for 3 hours. OD620 was read using a microplate reader.
3) The EC50 of the effect of the tested compound to stimulate hTLR8 was fitted by the GraphPad software log(agonist) vs. response—Variable slope four-parameter method.

SMILES strings stand for the structures.

As a reminder, the EC50 is the concentration at which the effect is half-maximal. On to `CN1CCC(Nc2cc(N)nc3cc(-c4ccn[nH]4)sc23)CC1` [Compound 89, N^7-(1-methylpiperidin-4-yl)-2-(1H-pyrazol-5-yl)thieno[3,2-b]pyridine-5,7-diamine], for which the EC50 was above 30 µM in the test with THP1-defNLRP3 cells and above 100 µM on hTLR8.

Turning to `Nc1cc(NCCCO)c2sc(-c3ccncc3)cc2n1` [Compound 90, 3-((5-amino-2-(pyridin-4-yl)thieno[3,2-b]pyridin-7-yl)amino)-1-propanol], the EC50 in the test with THP1-defNLRP3 cells is above 30 µM; at hTLR8 it was above 100 µM.

Regarding `Cc1cccc(-c2cc3nc(N)cc(NCCCO)c3s2)n1` [Compound 91, 3-((5-amino-2-(6-methylpyridin-2-yl)thieno[3,2-b]pyridin-7-yl)amino)-1-propanol], the EC50 is above 30 µM with THP1-defNLRP3 cells and above 100 µM on hTLR8.

With `CC(=O)N1CCC(Nc2cc(N)nc3cc(-c4ccn[nH]4)sc23)CC1` [Compound 92, 1-(4-((5-amino-2-(1H-pyrazol-5-yl)thieno[3,2-b]pyridin-7-yl)amino)piperidin-1-yl)ethanone], the EC50 is above 30 µM with THP1-defNLRP3 cells and above 100 µM at hTLR8.

With `Nc1cc(NCCCO)c2sc(-c3ccccc3)cc2n1` [Compound 93, 3-((5-amino-2-phenylthieno[3,2-b]pyridin-7-yl)amino)-1-propanol], the results for the EC50 with THP1-defNLRP3 cells and at hTLR8 were above 30 µM and above 100 µM, respectively.

With `CC[C@H](CO)Nc1cc(N)nc2cc(-c3ccn[nH]3)sc12` [Compound 95, (R)-2-((5-amino-2-(1H-pyrazol-5-yl)thieno[3,2-b]pyridin-7-yl)amino)butanol], the EC50 is above 30 µM in the test with THP1-defNLRP3 cells and above 100 µM on hTLR8.

On to `Nc1cc(N[C@@H]2CCC[C@@H]2O)c2sc(-c3ccn[nH]3)cc2n1` [Compound 96, (1S,2R)-2-((5-amino-2-(1H-pyrazol-5-yl)thieno[3,2-b]pyridin-7-yl)amino)cyclopentanol], for which the EC50 in the test on THP1-defNLRP3 cells is above 30 µM; on hTLR8, above 100 µM.

For the compound `Nc1cc(NCC(F)(F)c2ccccn2)c2sc(-c3ccn[nH]3)cc2n1` [Compound 97, N^7-(2,2-difluoro-2-(pyridin-2-yl)ethyl)-2-(1H-pyrazol-5-yl)thieno[3,2-b]pyridine-5,7-diamine], the EC50 in the test on THP1-defNLRP3 cells is above 30 µM; at hTLR8, above 100 µM.

For the compound `CC1(O)CCN(CCNc2cc(N)nc3cc(-c4ccn[nH]4)sc23)CC1` [Compound 98, 1-(2-((5-amino-2-(1H-pyrazol-5-yl)thieno[3,2-b]pyridin-7-yl)amino)ethyl)-4-methylpiperidine-4-ol], the EC50 in the test on THP1-defNLRP3 cells is above 30 µM; on hTLR8 it was above 100 µM.

For the compound `CC1(O)CCN(CCCNc2cc(N)nc3cc(-c4ccn[nH]4)sc23)CC1` [Compound 99, 1-(3-((5-amino-2-(1H-pyrazol-5-yl)thieno[3,2-b]pyridin-7-yl)amino)propyl)-4-methylpiperidine-4-ol], the EC50 with THP1-defNLRP3 cells is above 30 µM; at hTLR8 it was above 100 µM.

On to `COCCNc1cc(N)nc2cc(-c3ccn[nH]3)sc12` [Compound 100, N^7-(2-methoxyethyl)-2-(1H-pyrazol-5-yl)thieno[3,2-b]pyridine-5,7-diamine], for which the concentration for a half-maximal effect (EC50) in the test with THP1-defNLRP3 cells was above 30 µM; at hTLR8 it was above 100 µM.

In the case of `CO[C@H](C)CNc1cc(N)nc2cc(-c3ccn[nH]3)sc12` [Compound 101, (R)—N^7-(2-methoxypropyl)-2-(1H-pyrazol-5-yl)thieno[3,2-b]pyridine-5,7-diamine], the EC50 is above 30 µM in the test with THP1-defNLRP3 cells and above 100 µM on hTLR8.

With `Nc1cc(NCC2CC2)c2sc(-c3ccn[nH]3)cc2n1` [Compound 102, N^7-(cyclopropylmethyl)-2-(1H-pyrazol-5-yl)thieno[3,2-b]pyridine-5,7-diamine], the EC50 is above 30 µM in the test on THP1-defNLRP3 cells and above 100 µM on hTLR8.

In the case of `CN1CCC[C@@H](Nc2cc(N)nc3cc(-c4ccn[nH]4)sc23)C1` [Compound 104, (R)—N^7-(1-methylpiperidin-3-yl)-2-(1H-pyrazol-5-yl)thieno[3,2-b]pyridine-5,7-diamine], the values for the EC50 in the test on THP1-defNLRP3 cells and at hTLR8 were above 30 µM and above 100 µM, respectively.

Turning to `Nc1cc(NC[C@@H]2CCCO2)c2sc(-c3ccn[nH]3)cc2n1` [Compound 105, (S)-2-(1H-pyrazol-5-yl)-N^7-((tetrahydrofuran-2-yl)methyl)thieno[3,2-b]pyridine-5,7-diamine], the EC50 in the test with THP1-defNLRP3 cells was above 30 µM; at hTLR8 it was above 100 µM.

For the compound `Cn1cc(CNc2cc(N)nc3cc(-c4ccn[nH]4)sc23)cn1` [Compound 106, N^7-(1-methyl-1H-pyrazol-4-yl)methyl-2-(1H-pyrazol-5-yl)thieno[3,2-b]pyridine-5,7-diamine], the EC50 is above 30 µM in the test on THP1-defNLRP3 cells and above 100 µM on hTLR8.

As for `C[C@@H](CO)Nc1cc(N)nc2cc(-c3ccn[nH]3)sc12` [Compound 108, (S)-2-((5-amino-2-(1H-pyrazol-5-yl)thieno[3,2-b]pyridin-7-yl)amino)propanol], the EC50 with THP1-defNLRP3 cells is above 30 µM; on hTLR8 it was above 100 µM.

As for `Cn1cc(-c2cc3nc(N)cc(NCCCO)c3s2)cn1` [Compound 109, 3-((5-amino-2-(1-methyl-1H-pyrazol-4-yl)thieno[3,2-b]pyridin-7-yl)amino)-1-propanol], the concentration for a half-maximal effect (EC50) in the test with THP1-defNLRP3 cells is above 30 µM; at hTLR8, above 100 µM.

Consider `Nc1cc(NC2CCCC2)c2sc(-c3ccn[nH]3)cc2n1` [Compound 110, N^7-cyclopentyl-2-(1H-pyrazol-5-yl)thieno[3,2-b]pyridine-5,7-diamine], for which the EC50 is above 30 µM in the test on THP1-defNLRP3 cells and above 100 µM on hTLR8.

Take `COC(C)(C)CNc1cc(N)nc2cc(-c3ccn[nH]3)sc12` [Compound 111, N^7-(2′-methoxy-2′-methylpropyl)-2-(1H-pyrazol-5-yl)thieno[3,2-b]pyridine-5,7-diamine]: the EC50 with THP1-defNLRP3 cells was above 30 µM; at hTLR8, above 100 µM.

With `Nc1cc(NC2COC2)c2sc(-c3ccn[nH]3)cc2n1` [Compound 112, N^7-(oxetan-3-yl)-2-(1H-pyrazol-5-yl)thieno[3,2-b]pyridine-5,7-diamine], the concentration giving a half-maximal response (EC50) was above 30 µM in the test on THP1-defNLRP3 cells and above 100 µM on hTLR8.
